Here are results for 2 molecules from paper PMC12022980, “Rational Design of PROTAC Linkers Featuring Ferrocene as a Molecular Hinge to Enable Dynamic Conformational Changes” (Journal of the American Chemical Society, 2025).

Structures are written as SMILES.

Data set [1] can be described thus: Mouse liver microsome stability. Particulars: liver microsomes; for CLint scaled at 1 µM: pH 7.4; for half-life at 1 µM: pH 7.4, read-out: stability T1/2 in mouse microsome. The data set is classed as in vitro ADME. As to the method: Mouse Liver Microsome Stability
Testing compound (1.5 μL) or reference compound (500 μM in 5% iPrOH and 95% acetonitrile) was mixed with 18.75 μL of 20 mg/mL liver microsome (Corning) and 479.75 μL of potassium phosphate buffer (0.1 M potassium phosphate buffer, 1 mM EDTA, pH 7.4). The reaction was started by mixing 30 μL of the above mixture (prewarmed to 37 °C) with 15 μL of 6 mM NADPH stock solution (prewarmed to 37 °C). After incubating for 5, 15, 30, or 45 min, 135 μL of acetonitrile containing internal standard was added to stop the reaction. For 0 min, the compound and microsome mixture were mixed with acetonitrile first before adding NADPH. After quenching, the reaction mixture was centrifuged, and the supernatant was taken and diluted for LC-MS
(Microsomes from liver hold many membrane-bound enzymes, among them those of drug oxidation.)

The nature of a further data set: Plasma stability assay. The format is in vitro ADME. Particulars: mouse plasma; read-out: stability T1/2 in mouse plasma. As to the method: Frozen plasma was thawed at 37 °C and centrifuged at 3000 rpm for 8 min to remove clots, and the supernatant was used in the experiment. The pH of the plasma was recorded, and only the pH range between 7.4 and 8 was used. The plasma and compound solution were prewarmed to 37 °C. 10 µL of prewarmed testing compound or reference compound (procaine) solution (20 μM in 0.05 mM sodium phosphate buffer (pH 7.4) with 0.5% BSA) was mixed with 90 μL of plasma at different time points to allow for 5, 15, 30, 45, and 60 min of incubation time. For 0 min, the plasma was mixed with vehicle only. Acetonitrile was added to the compound and plasma mixture to quench the reaction, and the resulting mixture was centrifuged (5594g for 15 min). The

The target of a further data set is T1, VHL (Homo sapiens, UniProt P40337).
T1 construct: host or cells: HEK293, transient transfection
The experiment in a line: NanoBRET VHL target engagement, permeabilised-cell mode. The following applies: HEK293 transfected with VHL-NanoLuc, tracer 0.5 μM. The format is cell-based. The source says:
To this end, we assessed the PROTAC cellular permeability by evaluating VHL target engagement using the Promega NanoBRET TE Intracellular E3 Ligase.[62] Current PROTAC permeability assays use artificial systems like PAMPA and Caco-2, designed for small molecules but not always effective for PROTACs due to their low permeability, high molecular weight and assay caveats (i.e., unspecific binding and low recovery).[63],[64] The NanoBRET assay is a high-throughput method validated for measuring E3 ligase engagement in live and permeabilised cells. The assay allows to rank PROTAC intracellular availability through competitive probe displacement and offers a simple workflow for prioritising compounds based on properties associated with permeability. […] Specifically, in the live-cell mode, the assay measures the apparent cellular affinity, where the plasma membrane is intact and can impede the compound’s access to its target. In the permeabilised-cell mode, the barrier posed by the plasma membrane is removed and the intrinsic affinity of the compound for target is measured. […] The ratio of potencies between live-cell and permeabilised-cell modes, referred to as the relative-binding affinity (RBA) value increases as intracellular availability decreases and is thus a metric for assessing a PROTAC̀s cellular availability. […]
(Bioluminescence resonance energy transfer reports proximity on the nanometre scale.)

The nature of data set [2]: LogD7.4 shake flask (octanol/phosphate buffer). The data set is classed as physicochemical. The following applies: octanol/potassium phosphate buffer, pH 7.4. The source says: The modulation of lipophilicity could play a critical role in optimizing PROTACs. We thus utilized traditionally measured LogD values from shake flask experiments alongside chromatographically assessed ChromLogD values.[72] […] By incorporating ferrocene, permeability may be improved due to the feature of promoting IMHB-mediated compact conformations, while also balancing the lipophilicity of the polar ligand/PEG linkers. However, while sufficient lipophilicity is required for passive uptake over the cell membrane, it may also drive poor aqueous solubility.[73]
For the permeabilised-cell assay, 10 µL of digitonin was added, and plates were incubated in darkness for 5 minutes to allow permeabilisation. In each well 10 µL of the 10x PROTAC and vehicle control dilutions were dispensed. A 100x NanoBRET tracer solution (50 µM for VHL permeabilised-cell assay) was prepared with 100% DMSO, then diluted to a 20x solution with tracer dilution buffer. A 5 µL volume of tracer was dispensed into each well at a final concentration of 0.5 µM, and the plate was mixed at 300 RPM for 15 seconds. Finally, 50 µL of a 3x substrate solution (8.8 µL NanoBRET Nano-Glo substrate and 3,500 µL Opti-MEM) was added, and plates were incubated for 1 minute at room temperature before reading on a GloMax Discover as […]
HiBiT Lytic Assay with Zosuquidar Co-treatment […]
Luminescence was measured using the GloMax® Multiplex Luminescence and Fluorescence Protocol for 96-well plates. The luminescence signal for each well was normalised to the fluorescence signal and further normalised to the mean values from iPrOH-treated controls, then expressed as a ratio relative to the vehicle control. Curve fitting and DC50 values were determined in GraphPad Prism v.10.0.3 using nonlinear regression with a three-parameter logistic model to calculate DC50 values. […]
of 1 mL/min and a column temperature of 40 °C. […] Data were analysed with Shimadzu Open Solution Data Browser to obtain the RTs of the peak for each individual compound and standards. […]
ChromLogD values for the compounds were then calculated based on the regression curve. […]

T1 sequence (P40337 whole entry): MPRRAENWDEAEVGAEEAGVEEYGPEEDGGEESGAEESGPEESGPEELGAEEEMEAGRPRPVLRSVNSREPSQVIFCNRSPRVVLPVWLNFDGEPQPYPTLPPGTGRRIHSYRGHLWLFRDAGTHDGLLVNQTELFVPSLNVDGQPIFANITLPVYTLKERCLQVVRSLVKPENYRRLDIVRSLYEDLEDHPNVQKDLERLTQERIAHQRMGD

Take `Cc1ncsc1-c1ccc(CNC(=O)[C@@H]2C[C@@H](O)CN2C(=O)[C@@H](NC(=O)CCCCCOCCOCCCCCC(=O)Nc2cccc3c2C(=O)N(C2CCC(=O)NC2=O)C3=O)C(C)(C)C)cc1` (stereo partly shown) [14a]: in data set [1], the CLint scaled (in general, a measure of how fast metabolising enzymes remove a compound, apart from limits set by blood flow) at 1 µM turned out to be 5090 mL/min/kg and the half-life at 1 µM came to 1.1 min. Moreover, in “Plasma stability assay”, the half-life at 2 µM worked out at 33.4 min. Moreover, it took 300 nM to reach half-maximal inhibition at VHL (IC50). In addition, in data set [2], the logD (in general, lipophilicity at a set pH, counting ionised and neutral species) stood at 3.3.
For the molecule `Cc1ncsc1-c1ccc(CNC(=O)[C@@H]2C[C@@H](O)CN2C(=O)[C@@H](NC(=O)COCCOCCOCCOCCOCCOCC(=O)N[C@H](C(=O)N2C[C@H](O)C[C@H]2C(=O)NCc2ccc(-c3scnc3C)cc2)C(C)(C)C)C(C)(C)C)cc1` [CM11], in data set [1], the CLint scaled at 1 µM was 212 mL/min/kg and the half-life at 1 µM was determined as 25.8 min. In addition, the half-life at 2 µM in “Plasma stability assay” was determined as 234 min. Moreover, the IC50 (as a rule, the concentration that inhibits the measured activity by half) against VHL was found to be 300 nM. The logD in data set [2] came out at 2.9.
